The values that follow come from patent EP1508617B1, “Method for stabilizing an alanine aminotransferase and the corresponding compositions” (SYSMEX CORPORATION, priority 1998, dated 1999).

The target of this assay is T1, ALT (Homo sapiens, UniProt P24298).
T1 construct: purchased ASAHI CHEMICAL INDUSTRIES CO., LTD; T-71
T1 sequence (P24298 1-496): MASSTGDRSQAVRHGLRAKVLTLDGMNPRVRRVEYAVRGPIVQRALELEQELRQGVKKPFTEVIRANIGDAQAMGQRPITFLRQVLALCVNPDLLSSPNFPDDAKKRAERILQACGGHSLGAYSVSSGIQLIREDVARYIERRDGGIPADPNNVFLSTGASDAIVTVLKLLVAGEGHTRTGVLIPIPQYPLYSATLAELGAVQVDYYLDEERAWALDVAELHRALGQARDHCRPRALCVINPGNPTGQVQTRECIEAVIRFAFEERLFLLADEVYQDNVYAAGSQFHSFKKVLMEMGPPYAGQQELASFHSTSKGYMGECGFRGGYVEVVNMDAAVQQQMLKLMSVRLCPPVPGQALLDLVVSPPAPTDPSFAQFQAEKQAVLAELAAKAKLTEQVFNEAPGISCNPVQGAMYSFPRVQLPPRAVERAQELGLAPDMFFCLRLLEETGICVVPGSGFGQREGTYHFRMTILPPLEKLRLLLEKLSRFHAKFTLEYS
As to the kind of experiment: Stabilization effect of amino acids on ALT in control substance (residual activity after storage). Type of assay: biochemical. The settings on record: for activity at 10000 µM: 96 h; for remaining activity at 1000 µM: tyrosine 1 mmol/L; for remaining activity at 5000 µM: valine 5 mmol/L; for remaining activity at 20000 µM: valine 20 mmol/L; for remaining activity at 50000 µM: valine 50 mmol/L; for remaining activity at 100000 µM: valine 100 mmol/L. As to the method: Using a human serum base and a BSA base as a medium, control substances were prepared respectively by adding, as a stabilizer, no amino acid, valine (10 mmol/L) as amino acid, proline (10 mmol/L) or other amino acid (10 mmol/L, provided that 1 mmol/L in case of tyrosine) to the respective mediums and then adding, as an enzyme, ALT (about 100 U/L).
The respective control substances thus obtained were stored at 45°C for four days and the residual activity of ALT contained in the respective control substances was measured.
CO., LTD. (manufacturing No. T-71). Furthermore, the human serum base used herein is a human serum base prepared by previously subjecting human serum to a heat treatment at 56°C for four hours thereby to devitalize an endogenous enzyme, followed by sterilization by filtration using a membrane filter of 0.2 µm in a pore diameter. The BSA base used herein is BES buffer (20 mmol/L) containing 3W/V% BSA.
With regard to the residual activity of ALT, the residual activity of ALT was measured by using an ALT reagent L "KOKUSAI" manufactured by INTERNATIONAL REAGENTS CORPORATION.
Valine and r-ALT were added to a human serum base and a BSA base in the concentration of about 100 U/L and, after storage at 45°C for four days, the residual activity was measured.

Where [1] appears, read: BSA base, amino acid 10 mmol/L, r-ALT about 100 U/L, stored at 45°C for four days (Example 1), read-out: Residual activity (%) of ALT.
Setting [2] is: Human serum base, amino acid 10 mmol/L, r-ALT about 100 U/L, stored at 45°C for four days (Example 1), read-out: Residual activity (%) of ALT.
Setting [3] is: read-out: Residual activity (%) of ALT, BSA base, amino acid 10 mmol/L, r-ALT about 100 U/L, stored at 45°C for four days (Example 1).
The mark [4] stands for this setting: read-out: Residual activity (%) of ALT, Human serum base, amino acid 10 mmol/L, r-ALT about 100 U/L, stored at 45°C for four days (Example 1).
Where [5] appears, read: BSA base, valine 0.5 mmol/L, 45°C for four days (Example 2).
[6] abbreviates: BSA base, 45°C for four days (Example 2).
[7] abbreviates: Human serum base, 45°C for four days (Example 2).

Read-outs that look alike come from different tables or passages of the source.

For `C[C@H](N)C(=O)O` [Alanine], the activity at 10000 µM under setting [1] was found to be 28% and the activity at 10000 µM under setting [2] is 15%.
Turning to `N=C(N)NCCC[C@H](N)C(=O)O` [Arginine], the activity at 10000 µM by setting is: under setting [3], 30%; under setting [4], 18%.
For `NC(=O)C[C@H](N)C(=O)O` [Asparagine], the activity at 10000 µM runs as follows: under setting [1], 25%; under setting [2], 14%.
Regarding `N[C@@H](CC(=O)O)C(=O)O` [Aspartic acid], the remaining activity at 10000 µM reads like this: under setting [1], 23%; under setting [2], 13%.
As to `N[C@@H](CS)C(=O)O` [Cysteine], the activity at 10000 µM runs as follows: under setting [1], 24%; under setting [2], 14%.
Consider `N[C@@H](CCC(=O)O)C(=O)O` [Glutamic acid], for which the remaining activity at 10000 µM by setting is: under setting [3], 28%; under setting [4], 15%.
With `NC(=O)CC[C@H](N)C(=O)O` [Glutamine], the activity at 10000 µM runs as follows: under setting [1], 15%; under setting [2], 17%.
For `NCC(=O)O` [Glycine], in that order: 30% and 19%.
With `N[C@@H](Cc1c[nH]cn1)C(=O)O` [Histidine], the activity at 10000 µM by setting is: under setting [1], 28%; under setting [2], 15%.
For `CC[C@H](C)[C@H](N)C(=O)O` [Isoleucine], in that order: 28% and 18%.
On to `CC(C)C[C@H](N)C(=O)O` [Leucine], for which the activity at 10000 µM was found to be 28% under setting [1] and 20% under setting [2].
Turning to `NCCCC[C@H](N)C(=O)O` [Lysine], the activity at 10000 µM stood at 31% under setting [1] and 20% under setting [2].
Taken in the same sequence, the figures for `CSCC[C@H](N)C(=O)O` [Methionine] were 31% and 20%.
For `N[C@@H](CO)C(=O)O` [Serine], in that order: 32% and 19%.
Taken in the same sequence, the figures for `C[C@@H](O)[C@H](N)C(=O)O` [Threonine] were 31% and 18%.
For `N[C@@H](Cc1c[nH]c2ccccc12)C(=O)O` [Tryptophane], the activity at 10000 µM amounted to 30% under setting [1] and 18% under setting [2].
Consider `N[C@@H](Cc1ccc(O)cc1)C(=O)O` [Tyrosine], for which the remaining activity at 1000 µM by setting is: (BSA base, r-ALT about 100 U/L, stored at 45°C for four days (Example 1)) 31%; (Human serum base, r-ALT about 100 U/L, stored at 45°C for four days (Example 1)) 18%.
For `CC(C)[C@H](N)C(=O)O` [Valine], the activity at 10000 µM under setting [1] amounted to 62%. Moreover, the activity at 10000 µM under setting [2] was 55%. Also, under setting [5], the “Residual activity (%) of ALT” value is 36% and the remaining activity at 500 µM amounted to 38%. Under setting [6], the remaining activity at 5000 µM is 46%, the remaining activity at 20000 µM stood at 65%, the remaining activity at 50000 µM turned out to be 64% and the remaining activity at 100000 µM amounted to 65%. Moreover, the remaining activity at 10000 µM (BSA base, valine 10 mmol/L, 45°C for four days (Example 2), read-out: Residual activity (%) of ALT) amounted to 62%. In addition, the remaining activity at 500 µM (Human serum base, valine 0.5 mmol/L, 45°C for four days (Example 2)) was found to be 28%. Under setting [7], this molecule gave a remaining activity at 5000 µM of 33%, a remaining activity at 20000 µM of 56%, a remaining activity at 50000 µM of 56% and a remaining activity at 100000 µM of 55%. Also, the remaining activity at 10000 µM (Human serum base, valine 10 mmol/L, 45°C for four days (Example 2), read-out: Residual activity (%) of ALT) was determined as 55%.
Regarding `N[C@@H](Cc1ccccc1)C(=O)O` [phenylalanine], the activity at 10000 µM runs as follows: under setting [1], 31%; under setting [2], 19%.
For `O=C(O)[C@@H]1CCCN1` [proline], in that order: 61% and 35%.
